Test system: KYSE140-MUT cells
Assay: Intracellular cytokine staining (IFN-γ) of CTLs from immunized Tg mice
Assay type: in vivo, HLA-A2.1/K^b Tg mice
Settings: 100 μg/mouse s.c. with CpG ODN 1826 once a week for three weeks; spleen lymphocytes re-stimulated with MUT peptide; KYSE140-MUT target cells; n = 5 per group
Method: To investigate whether neoepitopes could induce a peptide-specific T cell response in vivo, HLA-A2.1/K^b Tg mice were used and immunized according to the procedure de-scribed previously. In brief, mutant peptides or WH-mutant peptides (100 μg per mouse) with CpG-ODN 1826 (30 μg per mouse) were injected s.c. in the back of HLA-A2.1/K^b Tg mice (five mice per group, randomly grouped) once a week for three weeks. The normal saline (NS) group was immunized s.c. only with CpG ODN 1826 (30 μg/mouse) once a week for three weeks. Five days after the last injection, spleen lymphocytes were isolated and cultured at the concentration of 5 × 10^6 cells/mL in RPMI 1640 medium. These cells were induced by the same mutant peptides (10 μg/mL) that were used for in vivo stimulation and mIL-2 (30 U/mL) for a week. Intracellular cytokine staining assay (ICS) and cytotoxic assay (E: T ratios = 20:1, 40:1, 80:1) were performed after a week induced in vitro [22].
To test the MUT peptides stimulation of CTL response in vivo, peptide-specific T cells induced from Tg mice were co-cultured with tumor cell lines transfected with WT or MUT minigenes, as described in the in vitro assay. […] Intracellular cytokines were marked by anti-mouse IFN-γ or anti-mouse granzyme B, respectively, and analyzed by flow cytometry (BD FACSCelesta™, USA).

Sequence	IFN-γ secretion of CTLs (IFN-γ+ CD8+ T cells) [%]
LLGPNSFEV [TP53-R267P]	1.1
ILWRQDINL [NFE2L2-D13N]	1.5

Source: paper PMC8541546, “Identification of HLA-A2-Restricted Mutant Epitopes from Neoantigens of Esophageal Squamous Cell Carcinoma” (Vaccines, 2021)
